Assay results reported in patent US20110217265A1, “Screening for Inhibitors of HCV Amphipathic Helix (AH) Function” (priority 2008, published 2011).

Assays:
Huh7.5 cells = test: Alamar Blue cell viability assay; format: cell-based, human
Description: Antiviral Assays of Compounds. Subconfluent Huh7.5 cells were trypsinized and collected by centrifugation at 700 g for 5 min. The cells were then washed three times in ice-cold RNasefree PBS buffer (BioWhittaker) and resuspended at 1.5×10^7 cells·ml^−1 in PBS buffer. Wild-type FL-J6/JFH-5′C19Rluc2AUbi and Bart79I-luc RNAs for electroporation were generated by in vitro transcription of XbaI (FL-J6/JFH-5′C19Rluc2AUbi) and ScaI (Bart791-luc)-linearized DNA templates using the T7 MEGAscript kit (Ambion), followed by phenol-chloroform purification and DEPC water suspension, 5 μg of RNA were mixed with 400 μl of washed Huh7.5 cells in a 2-mm-gap cuvette (BTX) and immediately pulsed (0.82 kV (FL-J6/JFH-5′C19Rluc2AUbi) and 0.68 kV (Bart79I-luc), five […] pulses) with a BTX-830 electroporator. After 10 min recovery at 25° C., pulsed cells were diluted into 20 ml of pre-warmed growth medium. Cells from several electroporations were pooled to a common stock and seeded in 96-well plates (17,000-20,000 cells per well). After 24 hr, compounds were added to the cells and media changes were performed daily with fresh compounds. After 72 hr of treatment, cells were incubated for 2 hr at 37° C. in the presence of 10% Alamar Blue reagent (TREK Diagnostic Systems) to assess for cytotoxicity. […] The signal was normalized relative to untreated samples. Viral RNA replication was determined using Renilla (FL-J6/JFH-5′C19Rluc2AUbi) or firefly (Bart791-luc) luciferase assays, according to the manufacturer's (Promega) directions. The same samples subjected to the viability assay described below were analyzed in this assay. According to the manufacturer protocol, cells were washed with PBS buffer and shaken at room temperature for 15 min in 20 μl of lysis buffer. Reporter assays were performed directly in the wells of the culture plates by injecting 100 μl of the assay substrate into each well. Luminescence was measured over 10 seconds with a 2-second delay using a Berthold LB 96 V luminometer. Signal was normalized relative to untreated samples or samples grown in the presence of the corresponding concentration of DMSO. Experiments were repeated three times, each time with 4 replicates.

hERG = hERG (Homo sapiens, UniProt Q12809); test: hERG IC50
2a HCV RNA replicon = 2a HCV RNA replicon assay (FL-J6/JFH-5'C19Rluc2AUbi, luciferase); format: cell-based, Hepatitis C Virus genotype 2a; conditions: Hepatitis C virus, read-out: 2a (%) Percent of virus activity remaining in the presence of the compound
Excerpt: Plasmids. Bart79I, a high-efficiency subgenomic replicon of HCV (28), harbors the neomycin resistance gene (neo) and the HCV nonstructural proteins. The Bart-Luciferase plasmid, Bart79I-luc, was cloned from the Bart791 parent (29) and the pGL3-Basic parent (Promega). In brief, a NotI site was introduced after the 15th amino acid of Core in Bart791 using PCR mutagenesis. The plasmid pcDNA3.1-NS4B, which encodes the Con1 NS4B sequence and was used to study the protein stability of the wild type and mutant NS4Bs, was described previously. To introduce the M2 mutation into the 4BAH2 of plasmids encoding HCV replicons or NS4B, the nucleotide sequence GCG that encodes for alanine at NS4B amino acid position 51 was changed to GAG (encoding for glutamate) and the nucleotide sequence TGG that encodes for tryptophan at amino acid position 55 was changed to GAT (encoding for aspartate) through the use of Quick-ChangeTMXL site-directed mutagenesis kit (Stratagene, La Jolla, Calif.) as described by the manufacturer and confirmed by sequencing. FL-J6/JFH-5′C19Rluc2AUbi, which is a monocistronic, full-length HCV genome that expresses Renilla luciferase (Rluc) and was derived from the previously described infectious genotype 2a HCV genome J6/JFH1.
Antiviral Assays of Compounds. Subconfluent Huh7.5 cells were trypsinized and collected by centrifugation at 700 g for 5 min. The cells were then washed three times in ice-cold RNasefree PBS buffer (BioWhittaker) and resuspended at 1.5×10^7 cells·ml^−1 in PBS buffer. Wild-type FL-J6/JFH-5′C19Rluc2AUbi and Bart79I-luc RNAs for electroporation were generated by in vitro transcription of XbaI (FL-J6/JFH-5′C19Rluc2AUbi) and ScaI (Bart791-luc)-linearized DNA templates using the T7 MEGAscript kit (Ambion), followed by phenol-chloroform purification and DEPC water suspension, 5 μg of RNA were mixed with 400 μl of washed Huh7.5 cells in a 2-mm-gap cuvette (BTX) and immediately pulsed (0.82 kV (FL-J6/JFH-5′C19Rluc2AUbi) and 0.68 kV (Bart79I-luc), five […] pulses) with a BTX-830 electroporator. After 10 min recovery at 25° C., pulsed cells were diluted into 20 ml of pre-warmed growth medium. Cells from several electroporations were pooled to a common stock and seeded in 96-well plates (17,000-20,000 cells per well). After 24 hr, compounds were added to the cells and media changes were performed daily with fresh compounds. After 72 hr of treatment, cells were incubated for 2 hr at 37° C. in the presence of 10% Alamar Blue reagent (TREK Diagnostic Systems) to assess for cytotoxicity. Plates were then scanned and fluorescence was detected by using a FLEXstation II 384 (Molecular Devices). The signal was normalized relative to untreated samples. Viral RNA replication was determined using Renilla (FL-J6/JFH-5′C19Rluc2AUbi) or firefly (Bart791-luc) luciferase assays, according to the manufacturer's (Promega) directions. The same samples subjected to the viability assay described below were analyzed in this assay. According to the manufacturer protocol, cells were washed with PBS buffer and shaken at room temperature for 15 min in 20 μl of lysis buffer. Reporter assays were performed directly in the wells of the culture plates by injecting 100 μl of the assay substrate into each well. Luminescence was measured over 10 seconds with a 2-second delay using a Berthold LB 96 V luminometer. Signal was normalized relative to untreated samples or samples grown in the presence of the corresponding concentration of DMSO. Experiments were repeated three times, each time with 4 replicates.

HCV 1b RNA replicon = test: 1b HCV RNA replicon assay, Huh7 cell line with stable luciferase reporter; format: cell-based, Hepatitis C Virus genotype 1b; conditions: Hepatitis C virus, Huh-7; Huh7, stable LUC reporter

Chain of hERG (Q12809 whole entry): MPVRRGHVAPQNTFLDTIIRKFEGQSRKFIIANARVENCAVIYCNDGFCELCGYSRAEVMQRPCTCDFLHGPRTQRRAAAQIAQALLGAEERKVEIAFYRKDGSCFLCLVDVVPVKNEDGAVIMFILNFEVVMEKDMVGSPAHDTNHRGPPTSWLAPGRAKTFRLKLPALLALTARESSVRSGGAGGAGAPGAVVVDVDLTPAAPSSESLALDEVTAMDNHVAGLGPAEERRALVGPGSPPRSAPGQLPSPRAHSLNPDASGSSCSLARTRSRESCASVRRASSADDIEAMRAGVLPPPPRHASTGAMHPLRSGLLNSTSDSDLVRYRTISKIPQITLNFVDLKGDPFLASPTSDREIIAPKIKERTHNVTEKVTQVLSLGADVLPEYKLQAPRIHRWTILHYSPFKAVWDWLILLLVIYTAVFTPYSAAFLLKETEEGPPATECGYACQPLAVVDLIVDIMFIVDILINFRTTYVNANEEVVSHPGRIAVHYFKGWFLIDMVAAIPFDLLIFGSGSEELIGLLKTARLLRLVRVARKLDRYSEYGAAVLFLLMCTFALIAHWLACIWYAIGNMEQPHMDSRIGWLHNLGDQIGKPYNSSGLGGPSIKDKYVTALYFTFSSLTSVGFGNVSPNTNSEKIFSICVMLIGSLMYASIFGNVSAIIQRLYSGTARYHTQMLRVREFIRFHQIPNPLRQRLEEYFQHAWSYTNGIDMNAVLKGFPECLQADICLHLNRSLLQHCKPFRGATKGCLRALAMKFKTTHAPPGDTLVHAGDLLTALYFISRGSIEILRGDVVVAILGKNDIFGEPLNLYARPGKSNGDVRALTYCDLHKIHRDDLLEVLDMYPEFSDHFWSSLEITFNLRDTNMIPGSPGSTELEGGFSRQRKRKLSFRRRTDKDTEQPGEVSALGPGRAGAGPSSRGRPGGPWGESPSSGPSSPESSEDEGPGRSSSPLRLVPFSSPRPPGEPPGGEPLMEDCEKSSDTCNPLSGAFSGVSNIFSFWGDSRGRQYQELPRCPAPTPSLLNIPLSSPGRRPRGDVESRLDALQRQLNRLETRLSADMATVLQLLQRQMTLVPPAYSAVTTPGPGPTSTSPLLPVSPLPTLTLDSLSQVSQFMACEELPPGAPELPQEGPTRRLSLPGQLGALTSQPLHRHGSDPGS

Row | SMILES | Cell Viability (%), alamar blue (Huh7.5 cells; 5 μM) [%] | Cell Viability (%), alamar blue (Huh7.5 cells; 10 μM) [%] | IC50 (hERG) [µM] | activity at 5 µM (2a HCV RNA replicon) [%] | activity at 10 µM (2a HCV RNA replicon) [%] | IC50 (HCV 1b RNA replicon) [µM]
1 | Cc1ccncc1NC(=O)c1nc(Cl)c(N(C)c2ccccc2)nc1N [ID 465, 3-amino-6-chloro-5-(methyl(phenyl)amino)-N-(4-methylpyridin-3-yl)pyrazine-2-carboxamide 2,2,2-trifluoroacetate] | 89 | 78 | > 10 | 60 | 31 | 
2 | CC(C)CN(C)c1nc(N)c(C(=O)NC2CCCNC2)nc1Cl.O=C(O)C(F)(F)F (stereo not drawn) [ID 312, 3-amino-6-chloro-5-(isobutyl(methyl)amino)-N-(piperidin-3-yl)pyrazine-2-carboxamide 2,2,2-trifluoroacetate] | 76 | 53 | 4 | 21 | 9 | 44
3 | CC(C)CN(C)c1nc(N)c(C(=O)Nc2cccnc2)nc1Cl.Cl [ID 202, 3-amino-6-chloro-5-(isobutyl(methyl)amino)-N-(pyridin-3-yl)pyrazine-2-carboxamide hydrochloride] | 48 | 43 | 1.5 | 6 | 4 | 
4 | Cc1ccncc1NC(=O)c1nc(Cl)c(NCC(C)C)nc1N [ID 464, 3-amino-6-chloro-5-(isobutylamino)-N-(4-methylpyridin-3-yl)pyrazine-2-carboxamide 2,2,2-trifluoroacetate] | 95 | 85 | > 10 | 64 | 44 | 
